# Values of other authors as cited in PMC12424150 (Drug Delivery, 2025).
# Columns and labels:
# [1] = parameters: method as in Wharton et al. [2023]; Lingvay et al. [2024]; conditions: ref Wharton et al. [2023]; Lingvay et al. [2024]
# [2] = ref Dhillon [2018]
half-life in humans [2] [h],Molecule,average weight loss [1]
,Glucagon-like peptide-1 [GLP-1],up to 15%
165 to 183,CC[C@H](C)[C@H](NC(=O)[C@H](Cc1ccccc1)NC(=O)[C@H](CCC(=O)O)NC(=O)[C@H](CCCCNC(=O)COCCOCCNC(=O)COCCOCCNC(=O)CC[C@H](NC(=O)CCCCCCCCCCCCCCCCC(=O)O)C(=O)O)NC(=O)[C@H](C)NC(=O)[C@H](C)NC(=O)[C@H](CCC(N)=O)NC(=O)CNC(=O)[C@H](CCC(=O)O)NC(=O)[C@H](CC(C)C)NC(=O)[C@H](Cc1ccc(O)cc1)NC(=O)[C@H](CO)NC(=O)[C@H](CO)NC(=O)[C@@H](NC(=O)[C@H](CC(=O)O)NC(=O)[C@H](CO)NC(=O)[C@@H](NC(=O)[C@H](Cc1ccccc1)NC(=O)[C@@H](NC(=O)CNC(=O)[C@H](CCC(=O)O)NC(=O)C(C)(C)NC(=O)[C@@H](N)Cc1cnc[nH]1)[C@@H](C)O)[C@@H](C)O)C(C)C)C(=O)N[C@@H](C)C(=O)N[C@@H](Cc1c[nH]c2ccccc12)C(=O)N[C@@H](CC(C)C)C(=O)N[C@H](C(=O)N[C@@H](CCCNC(=N)N)C(=O)NCC(=O)N[C@@H](CCCNC(=N)N)C(=O)NCC(=O)O)C(C)C [semaglutide],
